Assay results: patent publication EP4353712A1 (Biodol Therapeutics, priority 2022, dated 2024)
pIC50: −log10 of the molar value. Where a name gives a salt, the structure may show the parent alone.

Biological target: T1, FLT3 (Homo sapiens, UniProt P36888)
T1 construct: expressed in transfected cells; host or cells: HEK293T
T1 sequence (P36888 27-993): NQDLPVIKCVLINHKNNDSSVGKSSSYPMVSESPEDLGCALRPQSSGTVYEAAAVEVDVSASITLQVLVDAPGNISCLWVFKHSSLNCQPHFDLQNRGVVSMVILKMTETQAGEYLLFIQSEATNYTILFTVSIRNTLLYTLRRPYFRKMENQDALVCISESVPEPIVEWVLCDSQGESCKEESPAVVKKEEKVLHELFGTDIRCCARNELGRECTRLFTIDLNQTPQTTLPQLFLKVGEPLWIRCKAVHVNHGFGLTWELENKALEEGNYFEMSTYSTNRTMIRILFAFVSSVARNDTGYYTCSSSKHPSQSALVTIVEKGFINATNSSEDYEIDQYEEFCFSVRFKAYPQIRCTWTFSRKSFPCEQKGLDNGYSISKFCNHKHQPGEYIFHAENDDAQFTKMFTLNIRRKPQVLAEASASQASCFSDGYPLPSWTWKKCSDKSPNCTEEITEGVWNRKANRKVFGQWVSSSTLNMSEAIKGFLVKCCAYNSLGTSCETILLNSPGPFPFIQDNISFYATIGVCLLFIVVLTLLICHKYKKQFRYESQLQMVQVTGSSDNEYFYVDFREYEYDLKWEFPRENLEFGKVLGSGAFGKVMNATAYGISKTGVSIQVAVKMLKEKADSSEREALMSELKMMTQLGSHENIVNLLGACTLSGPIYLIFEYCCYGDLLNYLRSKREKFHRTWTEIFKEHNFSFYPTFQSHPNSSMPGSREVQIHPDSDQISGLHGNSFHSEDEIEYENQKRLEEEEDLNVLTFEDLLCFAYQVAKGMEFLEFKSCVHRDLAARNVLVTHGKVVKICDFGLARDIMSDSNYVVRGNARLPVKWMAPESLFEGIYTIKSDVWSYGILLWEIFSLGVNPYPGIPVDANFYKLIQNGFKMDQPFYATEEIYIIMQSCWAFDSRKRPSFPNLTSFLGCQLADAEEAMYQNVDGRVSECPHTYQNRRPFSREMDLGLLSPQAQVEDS
Test: HTRF binding assay of FL to FLT3 (TR-FRET, SNAP-FLT3 transfected HEK293T cells)
Conditions: HEK293T cells transfected with SNAP-FLT3, labelled with SNAP-Lumi4-Tb; compounds 1 h at room temperature, then FL-d2 (0.5 nM), read after 20 h; 12 dilutions in triplicates, performed twice; read-out: Inhibition of FLT3 binding IC50, binding
Procedure: The binding of FL to FLT3 was measured by a Homologous Time-Resolved Fluorescence (HTRF) assay (Degorce et al., Current Chemical Genomics, 2009, 3, 22-32), which involves resonance energy transfer between a donor, Lumi4-Tb-donor-derivatized benzylguanine substrate (SNAP-Lumi4-Tb, excitation: 337 nm, emission: 630 nm, Cisbio, France), transfected in HEK cells, and an acceptor, red fluorescent FL (FL-d2, excitation: 620 nm, emission: 660 nm, Cisbio, France). When FL-d2 binds to the SNAP-Lumi4-Tb-tagged FLT3 receptor, the proximity of both fluorophores allows the time-resolved Förster resonance energy transfer (TR-FRET) signal to occur and the binding is measured as the ratio between the fluorescent emissions at 660 to 620 nm.
The detailed method is described in Rivat et al. (Nature Communications, 2018, 9 :1042). Briefly, HEK293T cells were transfected with a pCDNA3.1 SNAP-FLT3 plasmid by using Lipofectamine (Invitrogen), and were than labelled with SNAP-Lumi4-Tb. Plates containing attached transfected HEK293T cells were incubated with compounds of formula (I) for 1 h at room temperature. A series of 12 dilutions in triplicates was used for each compound and the experiment was performed twice. Then FL-d2 (0.5 nM) was added and the TR-FRET signal was read after 20 h incubation at room temperature with a HTRF-compatible reader (Envision, Perkin Elmer) allowing a donor excitation at 337 nm and a signal collection both at 615 nm and 665 nm (20 flashes, delay 50 µs, integration time 400 µs). Then HTRF ratio, obtained by dividing the acceptor signal (665 nm) by the donor signal (615 nm), was calculated at each concentration of test compounds. Non-specific binding was measured in the presence 50 µM of BDT001 (Rivat et al., ibid.). Concentration giving 50 % inhibition (IC50) were calculated by non-linear regression analysis for a one-site model, with variable slope (Prism®, Graphpad software, USA).

SMILES	pIC50
CN1CCN(c2ccc(C(=O)Nc3cccc4cnccc34)cc2)CC1 [(39), N-(isoquinolin-5-yl)-4-(4-methylpiperazin-1-yl)benzamide]	6.10
CN1CCN(c2ccc(C(=O)Nc3cccc4ncccc34)cc2)CC1 [(40), 4-(4-methylpiperazin-1-yl)-N-(quinolin-5-yl)benzamide]	5.77
CN1CCN(c2ccc(C(=O)Nc3cccc4nccnc34)cc2)CC1 [(41), 4-(4-methylpiperazin-1-yl)-N-(quinoxalin-5-yl)benzamide]	6.22
CN1CCN(c2ccc(C(=O)Nc3ccc(F)c4cccnc34)cc2)CC1 [(42), N-(5-fluoroquinolin-8-yl)-4-(4-methylpiperazin-1-yl)benzamide]	5.51
Cc1cc(C(=O)Nc2cccc3cccnc23)ccc1OCCN(C)C [(43), 4-(2-(dimethylamino)ethoxy)-3-methyl-N-(quinolin-8-yl)benzamide]	5.68
CN1CCN(c2ccc(C(=O)Nc3ccc(F)c4ncccc34)cc2)CC1 [(44), N-(8-fluoroquinolin-5-yl)-4-(4-methylpiperazin-1-yl)benzamide]	5.42
Cc1cc(N2CCN(C)CC2)ccc1C(=O)Nc1cccc2cnccc12 [(45), N-(isoquinolin-5-yl)-2-methyl-4-(4-methylpiperazin-1-yl)benzamide]	6.00
CN1CCN(c2ccc(C(=O)Nc3ccc(Cl)c4ncccc34)cc2)CC1 [(46), N-(8-chloroquinolin-5-yl)-4-(4-methylpiperazin-1-yl)benzamide]	6.00
Cc1cc(OCCN(C)C)ccc1C(=O)Nc1cccc2ncccc12 [(47), 4-(2-(dimethylamino)ethoxy)-2-methyl-N-(quinolin-5-yl)benzamide]	5.77
CN(C)CCOc1ccc(C(=O)Nc2cccc3cnccc23)cc1C(F)(F)F [(48), 4-(2-(dimethylamino)ethoxy)-N-(isoquinolin-5-yl)-3-(trifluoromethyl)benzamide]	5.89
CN(C)CCOc1ccc(C(=O)Nc2cccc3ncccc23)c(C(F)(F)F)c1 [(49), 4-(2-(dimethylamino)ethoxy)-N-(quinolin-5-yl)-2-(trifluoromethyl)benzamide]	5.62
COc1cc(C(=O)Nc2cccc3ncccc23)ccc1N1CCN(C)CC1 [(50), 3-methoxy-4-(4-methylpiperazin-1-yl)-N-(quinolin-5-yl)benzamide]	5.64
CN1CCN(c2ccc(C(=O)Nc3ccc(Cl)c4cnccc34)cc2)CC1 [(51), N-(8-chloroisoquinolin-5-yl)-4-(4-methylpiperazin-1-yl)benzamide hydrochloride]	5.89
CN1CCN(c2ccc(C(=O)Nc3ccc(C(F)(F)F)c4ccncc34)cc2)CC1 [(52), 4-(4-methylpiperazin-1-yl)-N-[5-(trifluoromethyl)isoquinolin-8-yl]benzamide hydrochloride]	5.12
